Test results from patent publication US9492508B2, “Parathyroid hormone analogs and uses thereof” (The General Hospital Corporation, priority 2010, dated 2016).
Ends that are not written are not given here.

Tests used:
MC3T3-E1 cells = assay: cAMP response following ligand wash-out in MC3T3-E1 cells; format: cell-based, mouse; conditions: 100 nM ligand 5 min, then wash-out; FIGS. 7A, 7B
Method: Cells were treated at room temperature with vehicle or the indicated ligand (100 nM) for five minutes; for each ligand duplicate wells were used to obtain the initial (maximum cAMP values); in these wells, cells were co-incubated with ligand and IBMX. After five minutes of initial treatment, the buffer was removed, and, for the initial wells, the reactions were terminated by addition of 50 mM HCl. In the other wells, the cells were rinsed three times with buffer, and incubated in buffer for varying times, as indicated on the abscissa; after which the buffer was replaced by a buffer containing IBMX, and the cells were incubated for another five minutes. After that, the buffer was removed and the reactions were terminated by addition of 50 mM HCl. The cAMP contents of the HCl lysates were then determined by RIA.

[1] = Stability in phosphate-citrate buffers and 10 mM acetic acid, reverse-phase HPLC; format: physicochemical; conditions: 4 weeks
Method: The amount of intact SP-PTH-AAK (SEQ ID NO:4) peptide remaining in the sample, as compared to the starting sample, was measured by rPHPLC.
Stability testing of SP-PTH-AAK (SEQ ID NO:4) was also performed. SP-PTH-AAK (SEQ ID NO:4) was stored at different peptide concentrations in 50 mM phosphate-citrate (PC) buffer (pH 4.0, 4.5, and 5.5) and 10 mM acetic acid at 5, 25, and 40° C. for 4 weeks.

human PTHR1 (RG) = target: T1, human PTHR1 (RG) (Homo sapiens, UniProt Q03431); assay: Competition binding, RG conformation of human PTHR1 (COS-7 membranes); conditions: mean of 3 experiments, read-out: Binding human PTHR1 IC50 (Log M) RG (converted)
T1 construct: expressed in transfected cells; host or cells: COS-7 cells (membranes)
T1 sequence (Q03431 27-593): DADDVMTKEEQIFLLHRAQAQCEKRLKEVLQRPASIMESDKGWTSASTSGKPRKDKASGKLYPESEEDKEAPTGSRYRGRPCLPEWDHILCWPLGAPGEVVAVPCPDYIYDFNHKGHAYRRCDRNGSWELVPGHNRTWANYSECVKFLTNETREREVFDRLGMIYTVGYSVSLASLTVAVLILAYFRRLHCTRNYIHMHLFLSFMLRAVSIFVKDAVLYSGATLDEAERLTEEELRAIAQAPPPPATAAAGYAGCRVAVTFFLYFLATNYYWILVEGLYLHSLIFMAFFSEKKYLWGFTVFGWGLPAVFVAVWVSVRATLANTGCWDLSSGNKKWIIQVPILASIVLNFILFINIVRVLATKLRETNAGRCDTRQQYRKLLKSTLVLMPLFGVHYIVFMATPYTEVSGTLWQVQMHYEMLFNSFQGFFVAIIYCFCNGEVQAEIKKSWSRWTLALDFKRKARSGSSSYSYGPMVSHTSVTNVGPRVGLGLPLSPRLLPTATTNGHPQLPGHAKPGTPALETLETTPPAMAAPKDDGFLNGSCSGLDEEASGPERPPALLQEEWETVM
Method: Briefly, the R^0 form of the receptor can be favored by addition of the non-hydrolyzable nucleotide analog GTPγS. The RG form can be favored, for example, by co-transfection of cells with a negative dominant Gαs subunit. […] Data are means of four experiments, each performed in duplicate. Curves were fit to the data using Graph-Pad Prism 4.0.
Here, competition binding assays for the R^0 and RG PTHR1 conformation were performed in membranes prepared from transfected COS-7 cells, as described by Dean et al., Mol Endocrinol 22:156-66, 2008. Data are means of three experiments, each performed in duplicate. Curves were fit to the data using Graph-Pad Prism 4.0.

PD PTH receptor = target: T2, PD PTH receptor (Mus musculus, UniProt P41593, S489A/S491A/S492A/S493A/S495A/S501A/S504A); assay: Blood calcium and cAMP in knock-in mice with phosphorylation-deficient (PD) PTH receptor vs wild-type; format: in vivo; conditions: FIG. 19
T2 construct: endogenous in cells; host or cells: knock-in mice (in vivo)
T2 sequence (P41593 27-591 S489A/S491A/S492A/S493A/S495A/S501A/S504A): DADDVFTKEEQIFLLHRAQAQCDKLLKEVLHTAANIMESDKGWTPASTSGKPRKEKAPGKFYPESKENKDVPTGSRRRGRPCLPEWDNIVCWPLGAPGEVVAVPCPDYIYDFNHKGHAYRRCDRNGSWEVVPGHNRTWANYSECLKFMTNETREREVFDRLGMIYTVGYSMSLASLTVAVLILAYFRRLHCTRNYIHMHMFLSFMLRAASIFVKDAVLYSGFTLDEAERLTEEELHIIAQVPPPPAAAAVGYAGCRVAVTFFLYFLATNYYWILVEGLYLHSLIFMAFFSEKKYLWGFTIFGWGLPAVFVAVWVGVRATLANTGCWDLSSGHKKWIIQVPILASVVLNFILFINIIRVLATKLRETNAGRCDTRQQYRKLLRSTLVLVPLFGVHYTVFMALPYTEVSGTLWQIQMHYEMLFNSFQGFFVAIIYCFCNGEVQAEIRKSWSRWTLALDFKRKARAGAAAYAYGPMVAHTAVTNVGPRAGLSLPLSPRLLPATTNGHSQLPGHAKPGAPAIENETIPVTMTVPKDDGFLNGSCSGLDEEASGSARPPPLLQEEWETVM
Method: The activity of SP-PTH-AAK (SEQ ID NO:4) was tested in “knock-in” mice that express a PD PTH receptor in place of the wild-type PTH receptor (Bounoutas et al., Endocrinology 147: 4674, 2006).
Blood cAMP levels were also compared between the two types of mice.

in vivo = conditions: rat, iv, 24.3 nmol/kg

stability, intact peptide by reverse-phase HPLC at 25° C. ([1]; 50 mM PC buffer pH 4.0, 4.5, 5.5 and 10 mM acetic acid, 25° C.)	IC50 (human PTHR1 (RG))	MRT (in vivo; Crl:CD(SD))	Vd (in vivo; Crl:CD(SD))	clearance (in vivo; Crl:CD(SD))	half-life (in vivo; Crl:CD(SD))	AUC(0-t) (in vivo)	Substance	cAMP-stimulating activity after ligand wash-out (MC3T3-E1 cells)	stability at 40° C., HPLC finding ([1]; 40° C.)	blood calcium level in PD mice (PD PTH receptor)
							AVAEIQLMHQRAKWIQDLRRRFFLHHLIAEIHTAEI-OH [SP-PTH, [Ala^1,3,12,Gln^10,Arg^11,Trp^14]PTH(1-14)/PTHrP(15-36)]	maintained cAMP-stimulating activity for longer periods of time than PTH(1-34)		
near full stability	0.224 nM	5.83 min	0.126 L/kg	21.6 mL/min/kg	7.27 min	0.0187 µM·h	AVAEIQLMHQRAKWIQDARRRAFLHKLIAEIHTAEI-OH [SP-PTH-AAK, [Ala^1,3,12,18,22,Gln^10,Arg^11,Trp^14,Lys^26]PTH(1-14)/PTHrP(15-36)]	maintained cAMP-stimulating activity for longer periods of time than PTH(1-34)	a degraded product, likely a methionine-oxide derivative, was detected	reduced blood calcium level for at least six hours after injection
